The values that follow come from ChEMBL document CHEMBL2407040, “Discovery and optimization of 7-aminofuro[2,3-c]pyridine inhibitors of TAK1” (Bioorg Med Chem Lett, 2013).

pIC50: −log10 of the molar value. Where only a bound is given, the exact number is not on record here.

Usually bioavailability stands for the share of a dose that reaches the circulation, judged against a reference dose that is usually intravenous. In general, pIC50 refers to −log10 of the IC50, conventionally taken in molar units. The term AUC(0-inf) denotes total exposure, with the tail of the curve extrapolated. A low value points to less exposure. What is called clearance is the rate of elimination divided by the concentration. Read a low clearance as a low capacity for elimination. In general, half-life refers to how long it takes for the measured level to halve. A high value points to slow loss. By Cmax is commonly meant the peak of the concentration-time curve.

Data set [1] is described as follows: Metabolic stability in human liver microsomes assessed as extraction ratio. The class given is ADME, Microsome. The conditions noted are these: read-out: ERH. In general terms: Liver microsomes are a subcellular fraction often used to study metabolism.
Data set [2] is described as follows: Oral bioavailability in mouse at 20 mg/kg. As to conditions: in vivo. The class given is ADME, organism-based.
Data set [3] addresses T1, Mitogen-activated protein kinase kinase kinase 7 (Homo sapiens, UniProt O43318).
T1 sequence (O43318 whole entry): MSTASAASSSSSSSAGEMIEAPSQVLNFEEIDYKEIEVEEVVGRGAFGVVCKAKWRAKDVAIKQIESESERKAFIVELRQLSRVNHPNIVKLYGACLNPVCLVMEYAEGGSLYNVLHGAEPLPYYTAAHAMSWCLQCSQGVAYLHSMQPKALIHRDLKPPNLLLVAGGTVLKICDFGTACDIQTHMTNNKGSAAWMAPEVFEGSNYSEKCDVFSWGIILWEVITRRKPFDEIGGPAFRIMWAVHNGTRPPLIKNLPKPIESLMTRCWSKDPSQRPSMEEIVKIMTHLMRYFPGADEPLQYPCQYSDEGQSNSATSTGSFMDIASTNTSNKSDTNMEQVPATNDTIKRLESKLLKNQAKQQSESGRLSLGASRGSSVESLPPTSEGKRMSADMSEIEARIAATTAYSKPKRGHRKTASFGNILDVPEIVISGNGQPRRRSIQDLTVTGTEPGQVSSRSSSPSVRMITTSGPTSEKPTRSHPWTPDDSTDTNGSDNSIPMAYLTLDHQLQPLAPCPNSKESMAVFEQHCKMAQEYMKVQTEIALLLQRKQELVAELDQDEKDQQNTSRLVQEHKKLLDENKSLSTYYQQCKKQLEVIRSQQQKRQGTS
The experiment in a line: Inhibition of TAK1 in human HCT116 cells assessed as inhibition of TNF-alpha-stimulated JNK phosphorylation. The class given is cell-based, HCT-116.

Data set [4] is described as follows: Volume of distribution at steady state in mouse at 2 mg/kg, iv. In kind it is ADME, organism-based. Also on record: dose 2 mg/kg, route intravenous. As to conditions: in vivo, read-out: Vdss.
Data set [5] is described as follows: Metabolic stability in mouse liver microsomes assessed as extraction ratio. The class given is ADME, Microsome. The conditions noted are these: read-out: ERH.
A short description of data set [6]: AUC (0 to infinity) in mouse at 2 mg/kg, iv. In kind it is ADME, organism-based. More on the design: time infinity, dose 2 mg/kg, route intravenous. The conditions noted are these: plasma.
In another data set the target is TAK1/TAB1 (Homo sapiens, UniProt O43318). The experiment in a line: Inhibition of truncated TAK1-TAB1(unknown origin) using MKK7 as substrate by ALPHAScreen assay in presence of ATP. The class given is protein-complex assay. For orientation: Alpha assays give light when donor and acceptor beads are brought close together.
TAK1/TAB1, sequence (Q15750 whole entry, one chain of several, the tested form may be a part): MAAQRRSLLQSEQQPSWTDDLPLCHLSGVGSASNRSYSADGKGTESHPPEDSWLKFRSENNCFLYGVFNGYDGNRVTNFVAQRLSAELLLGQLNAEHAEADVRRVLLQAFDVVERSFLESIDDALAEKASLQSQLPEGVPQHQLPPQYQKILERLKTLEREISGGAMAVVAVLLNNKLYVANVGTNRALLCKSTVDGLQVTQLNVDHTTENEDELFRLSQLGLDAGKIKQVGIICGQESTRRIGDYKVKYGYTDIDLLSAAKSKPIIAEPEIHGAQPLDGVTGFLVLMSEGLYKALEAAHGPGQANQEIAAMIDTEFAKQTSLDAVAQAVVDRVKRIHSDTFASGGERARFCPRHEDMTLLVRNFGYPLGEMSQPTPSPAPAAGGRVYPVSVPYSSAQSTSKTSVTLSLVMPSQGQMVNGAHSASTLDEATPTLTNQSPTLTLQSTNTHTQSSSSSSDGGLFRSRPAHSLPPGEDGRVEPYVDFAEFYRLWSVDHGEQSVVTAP
Data set [7] can be described thus: Clearance in mouse at 2 mg/kg, iv. In kind it is ADME, organism-based. Also on record: dose 2 mg/kg, route intravenous. The conditions noted are these: in vivo.
Data set [8] is described as follows: Half life in mouse at 2 mg/kg, iv. In kind it is ADME, organism-based. Also on record: dose 2 mg/kg, route intravenous. The conditions noted are these: in vivo.
Data set [9] is described as follows: Cmax in mouse at 20 mg/kg, po. More on the design: dose 20 mg/kg, route oral. The class given is ADME, organism-based. As to conditions: in vivo.
Data set [10] in a line: AUC (0 to infinity) in mouse at 20 mg/kg, po. The class given is ADME, organism-based. More on the design: time infinity, dose 20 mg/kg, route oral. The conditions noted are these: plasma.
A short description of data set [11]: Permeability of the compound by PAMPA. The conditions noted are these: read-out: permeability. In kind it is ADME. For orientation: The PAMPA barrier holds no transporters, so it reflects passive diffusion.

Consider `CC(=O)N1CCC(n2cc(-c3cnc(N)c4oc(-c5cccc6cnsc56)cc34)cn2)CC1`, for which the results for the hepatic extraction ratio in data set [1] and in data set [5] were 0.73 and 0.84, respectively. The same compound came in with a bioavailability in data set [2] of 11%. For the same compound, the pIC50 in [3] is 7.36; at TAK1/TAB1 it was 7.64. Further, the Vd in data set [4] came to 2.5 L/kg. Further, the AUC(0-inf) in data set [6] is 261 ng·h/mL; in data set [10] it was 285 ng·h/mL. In data set [7], this compound came in with a clearance of 128 mL/min/kg. The compound also showed a half-life in data set [8] of 30 min. Besides, the peak level in data set [9] (Cmax) was 1600 nM.
As to `CC(=O)N1CCC(n2cc(-c3cnc(N)c4oc(-c5cccc6ncsc56)cc34)cn2)CC1`, the hepatic extraction ratio came to 0.62 in [1] and 0.68 in data set [5]. The pIC50 in data set [3] is 8.00; on TAK1/TAB1, 7.89.
On to `Nc1ncc(-c2cnn(C3CCNCC3)c2)c2cc(-c3ccccc3)oc12`, for which the Papp in data set [11] is less than 1 ×10⁻⁶ cm/s. In addition, the pIC50 on TAK1/TAB1 is 5.57.
Take `Nc1ncc(-c2cnn(C3CCNCC3)c2)c2cc(-c3cccc4ccsc34)oc12`: the Papp in data set [11] was less than 1 ×10⁻⁶ cm/s. At TAK1/TAB1, the pIC50 is 5.92.
